Test results taken from ChEMBL document CHEMBL3045111, “Synthesis and herbicidal activities of novel 3-(substituted benzyloxy or phenoxy)-6-methyl-4-(3-trifluoromethylphenyl)pyridazine derivatives” (2012).
Active and inactive are the calls of the source. The rule behind the calls is not given here.

How the values were obtained:
[1] = tested on: Brassica rapa subsp. oleifera; experiment: Post-emergence herbicidal activity against one-leaf stage Brassica rapa subsp. oleifera under greenhouse condition at 75 g /ha measured after 24 days by spray method; format: functional; settings: 576 h, read-out: GI
Amaranthus retroflexus [2] = experiment: Post-emergence herbicidal activity against one-leaf stage Amaranthus retroflexus under greenhouse condition at 600 g /ha measured after 24 days by spray method; format: functional; settings: 576 h, read-out: GI
[3] = tested on: Brassica rapa subsp. oleifera; experiment: Post-emergence herbicidal activity against one-leaf stage Brassica rapa subsp. oleifera under greenhouse condition at 600 g /ha measured after 24 days by spray method; format: functional; settings: 576 h, read-out: GI
Spirodela polyrhiza [4] = experiment: Bleaching herbicidal activity in Spirodela polyrhiza fronds cultured in compound-containing in medium assessed as chlorophyll inhibition at 1 ug/ml after 7 days; format: functional; settings: 168 h
Amaranthus retroflexus [5] = experiment: Pre-emergence herbicidal activity against Amaranthus retroflexus under greenhouse condition at 750 g /ha measured after 24 days by spray method; format: functional; settings: 576 h, read-out: GI
Echinochloa crus-galli [6] = experiment: Pre-emergence herbicidal activity against Echinochloa crus-galli (barnyard grass) under greenhouse condition at 750 g /ha measured after 24 days by spray method; format: functional; settings: 576 h, read-out: GI
Amaranthus retroflexus [7] = experiment: Post-emergence herbicidal activity against one-leaf stage Amaranthus retroflexus under greenhouse condition at 75 g /ha measured after 24 days by spray method; format: functional; settings: 576 h, read-out: GI
[8] = tested on: Brassica rapa subsp. oleifera; experiment: Post-emergence herbicidal activity against one-leaf stage Brassica rapa subsp. oleifera under greenhouse condition at 150 g /ha measured after 24 days by spray method; format: functional; settings: 576 h, read-out: GI
Digitaria [9] = experiment: Pre-emergence herbicidal activity against Digitaria adscendens under greenhouse condition at 750 g /ha measured after 24 days by spray method; format: functional; settings: in Digitaria adscendens, 576 h, read-out: GI
Amaranthus retroflexus [10] = experiment: Post-emergence herbicidal activity against one-leaf stage Amaranthus retroflexus under greenhouse condition assessed as complete bleaching of leaves at 75 g /ha measured after 24 days by spray method; format: functional, organism-based
[11] = tested on: Brassica rapa subsp. oleifera; experiment: Post-emergence herbicidal activity against one-leaf stage Brassica rapa subsp. oleifera under greenhouse condition assessed as complete bleaching of leaves at 600 g /ha measured after 24 days by spray method; format: functional, organism-based
Amaranthus retroflexus [12] = experiment: Post-emergence herbicidal activity against one-leaf stage Amaranthus retroflexus under greenhouse condition assessed as complete bleaching of leaves at 600 g /ha measured after 24 days by spray method; format: functional, organism-based
[13] = tested on: Brassica rapa subsp. oleifera; experiment: Post-emergence herbicidal activity against one-leaf stage Brassica rapa subsp. oleifera under greenhouse condition at 300 g /ha measured after 24 days by spray method; format: functional; settings: 576 h, read-out: GI
[14] = tested on: Brassica rapa subsp. oleifera; experiment: Pre-emergence herbicidal activity against Brassica rapa subsp. oleifera under greenhouse condition at 750 g /ha measured after 24 days by spray method; format: functional; settings: 576 h, read-out: GI
[15] = tested on: Brassica rapa subsp. oleifera; experiment: Post-emergence herbicidal activity against one-leaf stage Brassica rapa subsp. oleifera under greenhouse condition assessed as complete bleaching of leaves at 150 g /ha measured after 24 days by spray method; format: functional, organism-based
Echinochloa crus-galli [16] = experiment: Post-emergence herbicidal activity against one-leaf stage of Echinochloa crus-galli (barnyard grass) under greenhouse condition at 750 g /ha measured after 24 days by spray method; format: functional; settings: 576 h, read-out: GI
Amaranthus retroflexus [17] = experiment: Post-emergence herbicidal activity against one-leaf stage of Amaranthus retroflexus under greenhouse condition at 750 g /ha measured after 24 days by spray method; format: functional; settings: 576 h, read-out: GI
[18] = tested on: Brassica rapa subsp. oleifera; experiment: Post-emergence herbicidal activity against one-leaf stage Brassica rapa subsp. oleifera under greenhouse condition at 750 g /ha measured after 24 days by spray method; format: functional; settings: 576 h, read-out: GI
[19] = tested on: Brassica rapa subsp. oleifera; experiment: Post-emergence herbicidal activity against one-leaf stage Brassica rapa subsp. oleifera under greenhouse condition assessed as complete bleaching of leaves at 75 g /ha measured after 24 days by spray method; format: functional, organism-based
Amaranthus retroflexus [20] = experiment: Post-emergence herbicidal activity against one-leaf stage Amaranthus retroflexus under greenhouse condition at 150 g /ha measured after 24 days by spray method; format: functional; settings: 576 h, read-out: GI
Digitaria [21] = experiment: Post-emergence herbicidal activity against one-leaf stage of Digitaria adscendens under greenhouse condition at 750 g /ha measured after 24 days by spray method; format: functional; settings: in Digitaria adscendens, 576 h, read-out: GI
[22] = tested on: Brassica rapa subsp. oleifera; experiment: Post-emergence herbicidal activity against one-leaf stage Brassica rapa subsp. oleifera under greenhouse condition assessed as complete bleaching of leaves at 300 g /ha measured after 24 days by spray method; format: functional, organism-based
Amaranthus retroflexus [23] = experiment: Post-emergence herbicidal activity against one-leaf stage Amaranthus retroflexus under greenhouse condition at 300 g /ha measured after 24 days by spray method; format: functional; settings: 576 h, read-out: GI
Amaranthus retroflexus [24] = experiment: Post-emergence herbicidal activity against one-leaf stage Amaranthus retroflexus under greenhouse condition assessed as complete bleaching of leaves at 300 g /ha measured after 24 days by spray method; format: functional, organism-based
Amaranthus retroflexus [25] = experiment: Post-emergence herbicidal activity against one-leaf stage Amaranthus retroflexus under greenhouse condition assessed as complete bleaching of leaves at 150 g /ha measured after 24 days by spray method; format: functional, organism-based
Spirodela polyrhiza [26] = experiment: Bleaching herbicidal activity in Spirodela polyrhiza fronds cultured in compound-containing in medium assessed as chlorophyll inhibition at 10 ug/ml after 7 days; format: functional; settings: 168 h

Compound | inhibition of growth at 75 g/ha [1] [%] | inhibition of growth at 600 g/ha (Amaranthus retroflexus [2]) [%] | inhibition of growth at 600 g/ha [3] [%] | inhibition at 1 µg/mL (Spirodela polyrhiza [4]) [%] | inhibition of growth at 750 g/ha (Amaranthus retroflexus [5]) [%] | inhibition of growth at 750 g/ha (Echinochloa crus-galli [6]) [%] | inhibition of growth at 75 g/ha (Amaranthus retroflexus [7]) [%] | inhibition of growth at 150 g/ha [8] [%] | inhibition of growth at 750 g/ha (Digitaria [9]) [%] | Activity [11] | Activity (Amaranthus retroflexus [12]) | inhibition of growth at 300 g/ha [13] [%] | inhibition of growth at 750 g/ha [14] [%] | Activity [15] | inhibition of growth at 750 g/ha (Echinochloa crus-galli [16]) [%] | inhibition of growth at 750 g/ha (Amaranthus retroflexus [17]) [%] | inhibition of growth at 750 g/ha [18] [%] | Activity [19] | inhibition of growth at 150 g/ha (Amaranthus retroflexus [20]) [%] | inhibition of growth at 750 g/ha (Digitaria [21]) [%] | further results
Cc1cc(-c2cccc(C(F)(F)F)c2)c(Oc2ccc(Cl)cc2)nn1 | 65 | 90 | 80 | 72 | 100 | 85 | 45 | 71 | 97 | Active | Active | 76 | 97 | Active | 78 | 94 | 98 | Active | 84 | 79 | Activity (Amaranthus retroflexus [10]): Active; Activity [22]: Active; inhibition of growth at 300 g/ha (Amaranthus retroflexus [23]): 86%; Activity (Amaranthus retroflexus [24]): Active; Activity (Amaranthus retroflexus [25]): Active; inhibition at 10 µg/mL (Spirodela polyrhiza [26]): 99%
Cc1cccc(Oc2nnc(C)cc2-c2cccc(C(F)(F)F)c2)c1 | 46 | 43 | 70 | 79 | 0 | 29 | 29 | 51 | 43 | Active | Active | 63 | 3 | Active | 40 | 55 | 100 | Active | 34 | 81 | Activity [22]: Active; inhibition of growth at 300 g/ha (Amaranthus retroflexus [23]): 38%; Activity (Amaranthus retroflexus [24]): Active; Activity (Amaranthus retroflexus [25]): Active; inhibition at 10 µg/mL (Spirodela polyrhiza [26]): 84%
Cc1cc(-c2cccc(C(F)(F)F)c2)c(Oc2ccccc2)nn1 | 38 | 96 | 75 | 68 | 0 | 0 | 22 | 53 | 87 | Active | Active | 56 | 0 | Active | 26 | 75 | 99 | Active | 36 | 88 | Activity [22]: Active; inhibition of growth at 300 g/ha (Amaranthus retroflexus [23]): 64%; Activity (Amaranthus retroflexus [24]): Active; Activity (Amaranthus retroflexus [25]): Active; inhibition at 10 µg/mL (Spirodela polyrhiza [26]): 75%
O=C(Nc1ccc(F)cc1F)c1cccnc1Oc1cccc(C(F)(F)F)c1 [DIFLUFENICAN] | 44 | 100 | 98 | 90 | 90 | 94 | 41 | 88 | 100 | Active | Active | 94 | 71 | Active | 67 | 100 | 98 | Active | 70 | 83 | Activity (Amaranthus retroflexus [10]): Active; Activity [22]: Active; inhibition of growth at 300 g/ha (Amaranthus retroflexus [23]): 74%; Activity (Amaranthus retroflexus [24]): Active; Activity (Amaranthus retroflexus [25]): Active; inhibition at 10 µg/mL (Spirodela polyrhiza [26]): 94%
Cc1cc(-c2cccc(C(F)(F)F)c2)c(Oc2ccc(F)cc2)nn1 | 53 | 100 | 83 | 75 | 100 | 84 | 64 | 61 | 96 | Active | Active | 70 | 98 | Active | 35 | 96 | 95 | Active | 79 | 68 | Activity (Amaranthus retroflexus [10]): Active; Activity [22]: Active; inhibition of growth at 300 g/ha (Amaranthus retroflexus [23]): 90%; Activity (Amaranthus retroflexus [24]): Active; Activity (Amaranthus retroflexus [25]): Active; inhibition at 10 µg/mL (Spirodela polyrhiza [26]): 91%
Cc1ccc(Oc2nnc(C)cc2-c2cccc(C(F)(F)F)c2)cc1 | 56 | 76 | 97 | 82 | 0 | 0 | 5 | 67 | 44 | Active | Active | 89 | 13 | Active | 47 | 84 | 100 | Active | 47 | 30 | Activity [22]: Active; inhibition of growth at 300 g/ha (Amaranthus retroflexus [23]): 58%; Activity (Amaranthus retroflexus [24]): Active; Activity (Amaranthus retroflexus [25]): Active; inhibition at 10 µg/mL (Spirodela polyrhiza [26]): 94%
Cc1cc(-c2cccc(C(F)(F)F)c2)c(Oc2cc(F)cc(F)c2)nn1 | 55 | 100 | 82 | 80 | 96 | 51 | 31 | 65 | 100 | Active | Active | 78 | 65 | Active | 57 | 100 | 80 | Active | 96 | 48 | Activity [22]: Active; inhibition of growth at 300 g/ha (Amaranthus retroflexus [23]): 98%; Activity (Amaranthus retroflexus [24]): Active; Activity (Amaranthus retroflexus [25]): Active; inhibition at 10 µg/mL (Spirodela polyrhiza [26]): 84%
